Reference: ChEMBL document CHEMBL1136683, “Potent and selective aggrecanase inhibitors containing cyclic P1 substituents” (Bioorg Med Chem Lett, 2003)

Tests used:
[1] = Inhibition of bovine aggrecanase; design: species or system Bos taurus
[2] = target: Matrix metalloproteinase-9 (Homo sapiens, UniProt P14780); assay: Affinity for Matrix metalloprotease-9 (MMP-9)
[3] = Bioavailability after peroral administration (1 mg/kg) was determined in dog; assay type: ADME, organism-based, Canis lupus familiaris; conditions: in vivo, po
[4] = Tmax after peroral administration (10 mg/kg) was determined in rat; assay type: ADME, organism-based; conditions: in vivo, po
[5] = Vss after intravenous administration (5.0 mg/kg) was determined in rat; assay type: ADME, organism-based; conditions: in vivo, read-out: Vss
[6] = Systemic clearance after intravenous administration (5.0 mg/kg) was determined in rat; assay type: ADME, organism-based; conditions: in vivo
[7] = Tmax after peroral administration (1 mg/kg) was determined in dog; assay type: ADME, organism-based, Canis lupus familiaris; conditions: in vivo, po
[8] = Systemic clearance after intravenous administration (0.5 mg/kg) was determined in dog; assay type: ADME, organism-based, Canis lupus familiaris; conditions: in vivo
[9] = Vss after intravenous administration (0.5 mg/kg) was determined in dog; assay type: ADME, organism-based, Canis lupus familiaris; conditions: in vivo, read-out: Vss
[10] = Half life time after intravenous administration (0.5 mg/kg) was determined in dog; assay type: ADME, organism-based, Canis lupus familiaris; conditions: in vivo
[11] = Half life time after intravenous administration (5.0 mg/kg) was determined in rat; assay type: ADME, organism-based; conditions: in vivo
[12] = Bioavailability after peroral administration (10 mg/kg) was determined in rat; assay type: ADME, organism-based; conditions: in vivo, po

Matrix metalloproteinase-9, sequence (P14780 whole entry): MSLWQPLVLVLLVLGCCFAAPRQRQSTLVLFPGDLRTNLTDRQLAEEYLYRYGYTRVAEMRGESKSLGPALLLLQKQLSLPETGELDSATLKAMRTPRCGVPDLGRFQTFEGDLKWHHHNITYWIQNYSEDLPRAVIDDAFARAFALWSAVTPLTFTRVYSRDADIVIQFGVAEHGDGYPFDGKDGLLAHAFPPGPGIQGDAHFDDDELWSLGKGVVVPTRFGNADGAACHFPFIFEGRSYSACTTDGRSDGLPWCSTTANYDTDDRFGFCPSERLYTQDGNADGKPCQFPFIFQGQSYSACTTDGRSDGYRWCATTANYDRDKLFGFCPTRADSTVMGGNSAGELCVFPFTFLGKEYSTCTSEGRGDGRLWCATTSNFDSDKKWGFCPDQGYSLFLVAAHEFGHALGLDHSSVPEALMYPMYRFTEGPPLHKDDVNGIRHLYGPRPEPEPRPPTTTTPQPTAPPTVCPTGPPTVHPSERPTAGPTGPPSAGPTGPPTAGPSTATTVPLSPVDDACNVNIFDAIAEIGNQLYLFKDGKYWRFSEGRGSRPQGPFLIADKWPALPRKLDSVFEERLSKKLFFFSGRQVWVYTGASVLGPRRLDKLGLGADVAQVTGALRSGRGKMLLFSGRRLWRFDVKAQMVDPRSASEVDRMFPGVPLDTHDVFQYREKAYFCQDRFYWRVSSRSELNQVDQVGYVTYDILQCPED

| IC50 [1] [nM] | Ki [2] [nM] | Compound | further results |
| --- | --- | --- | --- |
| 3 | 2100 | CS(=O)(=O)N1CCC([C@H](C(=O)NO)[C@@H](Cc2cccc(O)c2)C(=O)N[C@H]2c3ccccc3C[C@H]2O)CC1 |  |
| 12 |  | O=C(NO)[C@@H](NCC1CC1)[C@@H](Cc1cccc(O)c1)C(=O)N[C@H]1c2ccccc2C[C@H]1O |  |
| 19 | 1300 | CC(C)(C)OC(=O)N1CCC([C@H](C(=O)NO)[C@@H](Cc2cccc(O)c2)C(=O)N[C@H]2c3ccccc3C[C@H]2O)CC1 |  |
| 114 | > 2130 | CC(=O)N1CCC(CC(C(=O)NO)C(Cc2cccc(O)c2)C(=O)N[C@H]2c3ccccc3C[C@H]2O)CC1 (single isomer, unassigned) |  |
| 29 | 1740 | CC(=O)N1CCC(C(C(=O)NO)C(Cc2cccc(O)c2)C(=O)N[C@H]2c3ccccc3C[C@H]2O)CC1 (single isomer, unassigned) |  |
| > 1000 | > 2130 | CC(C)(C)OC(=O)N1CCC([C@H](C(=O)O)C(Cc2cccc(O)c2)C(=O)N[C@H]2c3ccccc3C[C@H]2O)CC1 (stereo not given in full) |  |
| 97 | > 2130 | CCC(=O)N1CCC(C[C@H](C(=O)NO)[C@@H](Cc2cccc(O)c2)C(=O)N[C@H]2c3ccccc3C[C@H]2O)CC1 |  |
| 45 | > 2130 | CCN1CCC(C(C(=O)NO)C(Cc2cccc(O)c2)C(=O)N[C@H]2c3ccccc3C[C@H]2O)CC1 (single isomer, unassigned) |  |
| 7 | 832 | CCOC(=O)N1CCC([C@H](C(=O)NO)[C@@H](Cc2cccc(O)c2)C(=O)N[C@H]2c3ccccc3C[C@H]2O)CC1 |  |
| 28 | 4000 | O=C(N[C@H]1c2ccccc2C[C@H]1O)[C@H](Cc1cccc(O)c1)[C@@H](C(=O)NO)C1CCNCC1 | bioavailability [3]: 20%; Tmax [4]: 1.5 h; Vd [5]: 0.3 L/kg; clearance [6]: 8.33 mL/min/kg; Tmax [7]: 4.3 h; clearance [8]: 1.67 mL/min/kg; Vd [9]: 0.2 L/kg; half-life [10]: 3.8 h; half-life [11]: 4 h; bioavailability [12]: 1% |
| 7 | > 2130 | O=C(N[C@H]1c2ccccc2C[C@H]1O)[C@H](Cc1cccc(O)c1)[C@@H](C(=O)NO)C1CNC1 |  |
| 210 | > 2130 | CN1CCC([C@H](C(=O)NO)[C@@H](Cc2cccc(O)c2)C(=O)N[C@H]2c3ccccc3C[C@H]2O)CC1 |  |
| 3 | 1490 | O=C(N[C@H]1c2ccccc2C[C@H]1O)[C@H](Cc1cccc(O)c1)[C@@H](C(=O)NO)C1CN(C(=O)C(F)(F)F)C1 |  |
